Laboratory results published in patent US7078400B2, “20-HETE synthase inhibitor” (Taisho Pharmaceutical Co., Ltd., priority 1999, dated 2006).

Assays:
[1] = test system: 20-HETE synthase originated from rat kidney microsome; experiment: Inhibitory effect of 20-HETE synthase originated from rat kidney microsome; assay type: biochemical; conditions: for Inhibition rate (1 μM): 20-HETE production without compound set to 100%
Procedure: Experimental Example [Inhibitory effect of 20-HETE synthase originated from rat kidney microsome]
Regarding the compounds listed in Table 1, their inhibitory activity to production of 20-HETE was examined.
The subject compound for this examination was added to a buffer comprising 50 mM of 3-morpholinopropane sulfonic acid (pH7.4), 5 mM of magnesium chloride and 1 mM of ethylenediaminetetraacetic acid (EDTA) disodium salt.
After that, the rat kidney microsome (microsome fraction prepared from the kidney of a spontaneous hypertension rat (male, 6 weeks of age)) as an enzyme, [5,6,8,9,11,12,14,15] tritium-arachidonic acid (supplied by Amasham) as a substrate, and NADPH (supplied by Sigma) as a coenzyme were added and reacted for 1.5 hours at 37° C.
After the reaction, formic acid was added to stop the reaction, and then acetonitrile (final concentration of 50%) was added and left for 1.5 hours at room temperature.
The activity of 20-HETE synthase was measured by using a high performance liquid chromatograph having a detector for radioactive substances (supplied by Gilson), and equipped with a C18 reversed phase column (Biocyl C18, supplied by Bio-rad).

[2] = 1 μM of the subject compound added, rat kidney microsome
[3] = concentration at which production of 20-HETE was inhibited to 50%, rat kidney microsome
[4] = 1 μM of subject compound, rat kidney microsome
[5] = concentration at which 20-HETE production was inhibited to 50%, rat kidney microsome
[6] = concentration at which production of 20-HETE was inhibited to 50%

Row | SMILES | melting point | Inhibition rate (1 μM) [1, 2] | IC50 [1, 3] [nM] | Inhibition rate (1 μM) [1, 4] | IC50 [1, 5] [nM] | Inhibition rate (1 μM) ([1]; 1 μM of the subject compound) | IC50 [1, 6] [nM]
1 | Cc1ccc(Cl)c(N/C=N/O)c1 [Comp. 14] | 151 to 153 °C | 91.7 | 163 |  |  |  | 
2 | O/N=C/Nc1ccc(Cl)cc1Cl [Comp. 40] | 160 to 161 °C | 98.2 |  |  |  |  | 
3 | O/N=C/Nc1ccc(OCc2ccccn2)cc1 [Comp. 345, N-[4-(pyridin-2-ylmethoxy)phenyl]-N′-hydroxyformamidine] | 159.5 to 161 °C |  |  | 107 | 37.5 |  | 
4 | O/N=C/Nc1ccc(OCC2CCO2)cc1 (stereo not shown) [Comp. 409] | 145 to 146 °C |  |  |  |  | 113.2 | 6.7
5 | CC(C)c1ccc(N/C=N/O)c(Br)c1 [Comp. 58] | 146.5 to 148 °C | 99.9 | 7.1 |  |  |  | 
6 | OCCc1ccc(N/C=N/O)cc1 [Comp. 207] | 138 to 140 °C |  |  | 90.7 | 11.6 |  | 
7 | O/N=C/Nc1ccc(OCCCc2ccccc2)cc1 [Comp. 349] | 152.5 to 153 °C |  |  | 100 | 1.6 |  | 
8 | C/C=C/COc1ccc(N/C=N/O)cc1 [Comp. 336] | 142.5 to 146 °C |  |  | 117.6 | 3.2 |  | 
9 | O/N=C/Nc1c(Br)cccc1Br [Comp. 33] | 171 °C | 91.9 |  |  |  |  | 
10 | COc1ccc(COc2ccc(N/C=N/O)cc2)c(OC)c1 [Comp. 395] | 178 to 178.5 °C |  |  | 111.6 | 2.1 |  | 
11 | O/N=C/Nc1ccc(OCc2cccs2)cc1 [Comp. 350] | 168 to 168.5 °C |  |  | 91 | 1.4 |  | 
12 | N#CCCCOc1ccc(N/C=N/O)cc1 [Comp. 430] | 139.5 to 141 °C |  |  |  |  |  | 7.4
13 | CCCc1ccc(N/C=N/O)cc1 [Comp. 31] | 131 to 132 °C | 97.8 | 6.6 |  |  |  | 
14 | CCCCCCOc1ccc(N/C=N/O)cc1 [Comp. 320] | 125 to 126 °C |  |  | 92.5 | 1.3 |  | 
15 | O/N=C/Nc1ccc(OCc2cc(F)ccc2F)cc1 [Comp. 384] | 167 to 167.5 °C |  |  | 117.3 | 2.8 |  | 
16 | O/N=C/Nc1ccc(Oc2ccc(Cl)cc2)cc1 [Comp. 128] | 143 to 145 °C | 102.0 | 7 |  |  |  | 
17 | CN(C)CCCCOc1ccc(N/C=N/O)cc1 [Comp. 401] | 100 to 102 °C |  |  |  |  | 117.4 | 37.6
18 | CC(C)OCCOc1ccc(N/C=N/O)cc1 [Comp. 354] | 113 to 114 °C |  |  | 106 | 3 |  | 
19 | N#Cc1cccc(COc2ccc(N/C=N/O)cc2)c1 [Comp. 393] | 143 to 146 °C |  |  | 124.3 | 1.1 |  | 
20 | O/N=C/Nc1ccc(OCCSc2ccccn2)cc1 [Comp. 359] | 132.5 to 134.5 °C |  |  | 102 | 1.4 |  | 

Row | SMILES | melting point | Inhibition rate (1 μM) [1, 2] | IC50 [1, 3] [nM] | Inhibition rate (1 μM) [1, 4] | IC50 [1, 5] [nM] | Inhibition rate (1 μM) ([1]; 1 μM of the subject compound) | IC50 [1, 6] [nM]
21 | C#CCCCOc1ccc(N/C=N/O)cc1 [Comp. 331] | 139 to 139.5 °C |  |  | 118.8 | 3.2 |  | 
22 | CCC(C)Sc1ccc(N/C=N/O)cc1 (stereo not shown) [Comp. 449] | 119 to 120.5 °C |  |  |  |  | 105.1 | 1.8
23 | O/N=C/Nc1ccc(OCc2ccncc2)cc1 [Comp. 344] | 180 to 180.5 °C |  |  | 107 | 37.5 |  | 
24 | CC(=O)OCC(COc1ccc(N/C=N/O)cc1)OC(C)=O (stereo not shown) [Comp. 435] | 133 to 134.5 °C |  |  |  |  |  | 2.2
25 | Cc1ccc(N/C=N/O)c(Cl)c1 [Comp. 11] | 151 to 152.5 °C | 92.7 | 297 |  |  |  | 
26 | O=[N+]([O-])c1cc(F)ccc1N/C=N/O [Comp. 126] | 172.5 to 173 °C (dec.) | 34.9 |  |  |  |  | 
27 | O/N=C/Nc1ccc(OCc2ccoc2)cc1 [Comp. 368] | 165.5 to 166 °C |  |  | 96 | 2.5 |  | 
28 | O/N=C/Nc1ccccc1-c1ccccc1 [Comp. 234] | 111 to 113 °C |  |  | 74.1 |  |  | 
29 | O/N=C/Nc1ccc(Oc2ccccc2)cc1 [Comp. 131] | 144 to 145.5 °C | 89.2 | 26 |  |  |  | 
30 | Cc1ccc(F)c(N/C=N/O)c1 [Comp. 43] | 123 to 124 °C |  | 168 |  |  |  | 
31 | COc1ccc(COc2ccc(N/C=N/O)cc2)cc1 [Comp. 389] | 167 to 167.5 °C |  |  | 105.5 | 1.6 |  | 
32 | CC(=O)OCCCCCOc1ccc(N/C=N/O)cc1 [Comp. 426] | 101.5 to 104 °C |  |  |  |  |  | 5.1
33 | CCC(C)c1ccccc1N/C=N/O (stereo not shown) [Comp. 42] | 144 to 145 °C | 99.9 |  |  |  |  | 
34 | N#Cc1ccc(-c2ccc(N/C=N/O)cc2)cc1 [Comp. 229] | 194 to 195 °C |  |  | 99.3 | 16 |  | 
35 | CCCC(=O)c1ccc(N/C=N/O)c(C)c1 [Comp. 232] | 154 to 155 °C |  |  | 86.0 | 6.6 |  | 
36 | O/N=C/Nc1ccc(N2CCOCC2)cc1 [Comp. 300] | 182 to 182.5 °C |  |  | 96.3 | 5.7 |  | 
37 | CN(C)CCSc1ccc(N/C=N/O)cc1 [Comp. 445] | 112 °C |  |  |  |  | 95.1 | 
38 | O/N=C/Nc1ccc(OCc2ccsc2)cc1 [Comp. 367] | 165 to 166 °C |  |  | 103 | 2.1 |  | 
39 | CC(C)(C)Sc1ccc(N/C=N/O)cc1 [Comp. 456] | 143 to 145 °C |  |  |  |  | 94.4 | 6.3
40 | O/N=C/Nc1ccc(Cl)cc1F [Comp. 25] | 142.5 to 144.5 °C | 87.0 |  |  |  |  | 

Row | SMILES | melting point | Inhibition rate (1 μM) [1, 2] | IC50 [1, 3] [nM] | Inhibition rate (1 μM) [1, 4] | IC50 [1, 5] [nM] | Inhibition rate (1 μM) ([1]; 1 μM of the subject compound) | IC50 [1, 6] [nM]
41 | Cc1cc(N/C=N/O)ccc1C(C)C [Comp. 178] | 121 to 122.5 °C | 91.4 | 9 |  |  |  | 
42 | CCCCCCCc1ccc(N/C=N/O)cc1 [Comp. 28] | 119 to 120.5 °C | 92.5 | 4.7 |  |  |  | 
43 | CC(C)Sc1ccc(N/C=N/O)cc1 [Comp. 439] | 144.1 to 144.2 °C |  |  |  |  | 92.3 | 2.9
44 | OCC(O)COc1ccc(N/C=N/O)cc1 (stereo not shown) [Comp. 436] | 140.5 to 141 °C |  |  |  |  |  | 79.2
45 | CSCCCOc1ccc(N/C=N/O)cc1 [Comp. 414] | 132 to 133.5 °C |  |  |  |  | 113.2 | 1
46 | O/N=C/Nc1ccc(C(F)(F)F)cc1 [Comp. 27] | 140.5 to 142 °C | 103.3 | 1.7 |  |  |  | 
47 | O=C1CCCN1CCCOc1ccc(N/C=N/O)cc1 [Comp. 408] | 177 to 177.5 °C |  |  |  |  | 103.0 | 4.2
48 | O/N=C/Nc1ccc(OCC2COCO2)cc1 (stereo not shown) [Comp. 340] | 157.5 to 158 °C |  |  | 97.4 | 3 |  | 
49 | O/N=C/Nc1ccc(OCCCc2cccnc2)cc1 [Comp. 363] | 154 to 155 °C |  |  | 105 | 0.78 |  | 
50 | COc1cccc(C(F)(F)F)c1N/C=N/O [Comp. 125] | 138 to 139.5 °C (dec.) | 67.6 |  |  |  |  | 
51 | COc1ccc(Cl)cc1N/C=N/O [Comp. 26] | 155 to 156.5 °C | 86.0 | 204 |  |  |  | 
52 | CCOC(=O)CCCCCOc1ccc(N/C=N/O)cc1 [Comp. 424] | 102 to 103.5 °C |  |  |  |  |  | 1.5
53 | O/N=C/Nc1ccc(OCc2ccccc2)cc1 [Comp. 343] | 166.5 to 167 °C |  |  | 84.5 | 3.3 |  | 
54 | CC(C)Oc1ccc(N/C=N/O)cc1 [Comp. 316] | 144 to 146 °C |  |  | 97.9 | 24 |  | 
55 | O/N=C/Nc1ccc(OCCN2CCOCC2)cc1 [Comp. 355] | 141 to 142 °C |  |  | 107 | 5.9 |  | 
56 | O/N=C/Nc1ccc(/C=C/c2ccccc2)cc1 [Comp. 237] | 197.5 to 198 °C |  |  | 96.6 | 26.2 |  | 
57 | Cc1ncsc1CCOc1ccc(N/C=N/O)cc1 [Comp. 353] | 158 to 160 °C |  |  | 105 | 3.7 |  | 
58 | Cc1ccc(Oc2ccc(N/C=N/O)cc2)cc1 [Comp. 130] | 155 to 156 °C | 116.5 | 6.9 |  |  |  | 
59 | CCCCCOc1ccc(N/C=N/O)cc1 [Comp. 319] | 126 to 137.5 °C |  |  | 99.9 | 3.8 |  | 
60 | CCCCOCCOc1ccc(N/C=N/O)cc1 [Comp. 373] | 97 to 99 °C |  |  | 115.3 | 0.8 |  | 
